In patent publication US10584115B2, “Substituted pyridine and pyrazine BMI-1 inhibitors” (PTC Therapeutics, Inc., priority 2013, dated 2020):

System: Bmi-1 protein
Test: Sandwich ELISA Assay (Bmi-1 protein level in HT-1080 cells after compound treatment)
Format: cell-based
Conditions: Table 1, Bmi-1 sandwich ELISA, read-out: ELISA EC50 value for Bmi-1 protein
Outline: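 HT-1080 cells exposed to compounds for 40–48 h at 37 °C (0.5% DMSO final), then lysed. Bmi-1 in lysates measured by sandwich ELISA (mouse monoclonal capture, rabbit anti-Bmi-1 detection, HRP anti-rabbit, TMB), read at OD450 with OD570 reference against a recombinant Bmi-1 standard curve (0–8000 pg/mL).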

`Cc1nc2ccc(F)cn2c1-c1cncc(Nc2ccc(OC(F)F)c(F)c2)n1` [compound 309, N-[4-(difluoromethoxy)-3-fluorophenyl]-6-(6-fluoro-2-methylimidazo[1,2-a]pyridin-3-yl)pyrazin-2-amine] and `Fc1cc(Nc2cncc(-c3c(C(F)(F)F)nc4ccccn34)n2)ccc1OC(F)F` [compound 323, N-[4-(difluoromethoxy)-3-fluorophenyl]-6-[2(trifluoromethyl)imidazo[1,2-a]pyridin-3-yl]pyrazin-2-amine] fall in the same range of EC50: 1 to 10 nM for the first, 1 to 10 nM for the second.

First: COc1c(F)cc(Nc2cc(C#N)cc(-c3c(C)nc4ccc(F)cn34)n2)cc1F [compound 313, 2-[(3,5-difluoro-4-methoxyphenyl)amino]-6-(6-fluoro-2-methylimidazo[1,2-a]pyridin-3-yl)pyridine-4-carbonitrile]
Second: COc1c(F)cc(Nc2cc(C#N)cc(-c3c(C4CC4)nc4ccc(F)cn34)n2)cc1F [compound 351, 2-(2-cyclopropyl-6-fluoroimidazo[1,2-a]pyridin-3-yl)-6-[(3,5-difluoro-4-methoxyphenyl)amino}pyridine-4-carbonitrile]
The EC50 of the first is lower: 1 to 10 nM for the first, 10 to 100 nM for the second.

Compared with `COc1cc(Nc2cc(C#N)cc(-c3c(C)nc4ccc(F)cn34)n2)ccc1F` [compound 314, 2-[(4-fluoro-3-methoxyphenyl)amino]-6-(6-fluoro-2-methylimidazo[1,2-a]pyridin-3-yl)pyridine-4-carbonitrile], `N#Cc1cc(Nc2ccc(OC(F)F)cc2)nc(-c2c(C3CC3)nc3ccc(F)cn23)c1` [compound 348, 2-(2-cyclopropyl-6-fluoroimidazo[1,2-a]pyridin-3-yl)-6-{[4-(difluoromethoxy)phenyl]amino}pyridine-4-carbonitrile] is lower in EC50: 100 to 3000 nM for the first, 1 to 10 nM for the second. The second is the more potent here.

First: COc1ccc2nc(C)n(-c3cncc(Nc4ccc(C(F)(F)F)cc4)n3)c2c1 [compound 317, 6-(6-methoxy-2-methyl-1H-benzimidazol-1-yl)-N-[4-(trifluoromethyl)phenyl]pyrazin-2-amine]
Second: Cc1ccc2nc(C)n(-c3cncc(Nc4ccc(C(F)(F)F)cc4)n3)c2c1 [compound 343, 6-(2,6-dimethyl-1H-benzimidazol-1-yl)-N-[4-(trifluoromethyl)phenyl]pyrazin-2-amine]
The EC50 of the first is higher: 10 to 100 nM for the first, 1 to 10 nM for the second. The second is the more potent here.

`Cc1nc(C(F)(F)F)c(C)n1-c1cncc(Nc2ccc(C(F)(F)F)cc2)n1` [compound 318, 6-[2,5-dimethyl-4-(trifluoromethyl)-1H-imidazol-1-yl]-N-[4-(trifluoromethyl)phenyl]pyrazin-2-amine] and `Cc1nc(Br)c(C)n1-c1cncc(Nc2ccc(C(F)(F)F)cc2)n1` [compound 341, 6-(4-bromo-2,5-dimethyl-1H-imidazol-1-yl)-N-[4-(trifluoromethyl)phenyl]pyrazin-2-amine] fall in the same range of EC50: 100 to 3000 nM for the first, 100 to 3000 nM for the second.

`Cc1nc2cc(F)c(F)cc2n1-c1cncc(Nc2ccc(OC(F)F)c(F)c2)n1` [compound 319, N-[4-(difluoromethoxy)-3-fluorophenyl]-6-(5,6-difluoro-2-methyl-1H-benzimidazol-1-yl)pyrazin-2-amine] and `Cc1nc2cc(F)c(F)cc2n1-c1cc(C#N)cc(Nc2ccc(OC(F)F)c(F)c2)n1` [compound 326, 2-{[4-(difluoromethoxy)-3-fluorophenyl]amino}-6-(5,6-difluoro-2-methyl-1H-benzimidazol-1-yl)pyridine-4-carbonitrile] fall in the same range of EC50: 10 to 100 nM for the first, 10 to 100 nM for the second.

First: FC(F)(F)COc1ccc(Nc2cncc(-c3c(C(F)(F)F)nc4ccccn34)n2)cc1 [compound 321, N-[4-(2,2,2-trifluoroethoxy)phenyl]-6-[2-(trifluoromethyl)imidazo[1,2-a]pyridin-3-yl]pyrazin-2-amine]
Second: FC(F)C(F)(F)Oc1ccc(Nc2cncc(-c3c(C(F)(F)F)nc4ccccn34)n2)cc1 [compound 322, N-[4-(1,1,2,2-tetrafluoroethoxy)phenyl]-6-[2-(trifluoromethyl)imidazo[1,2-a]pyridin-3-yl]pyrazin-2-amine]
The EC50 of the first is lower: 10 to 100 nM for the first, 100 to 3000 nM for the second.

`Cc1nc2ccccc2n1-c1cncc(Nc2ccc(OC(F)F)c(F)c2)n1` [compound 324, N-[4-(difluoromethoxy)-3-fluorophenyl]-6-(2-methyl-1H-benzimidazol-1-yl)pyrazin-2-amine] and `Cc1nc2ncccc2n1-c1cncc(Nc2ccc(OC(F)F)c(F)c2)n1` [compound 325] fall in the same range of EC50: 10 to 100 nM for the first, 10 to 100 nM for the second.

First: CCc1nc2ncc(Cl)cc2n1-c1cncc(Nc2ccc(C(F)(F)F)cc2)n1 [compound 327, 6-(6-chloro-2-ethyl-1H-imidazo[4,5-b]pyridin-1-yl)-N-[4-(trifluoromethyl)phenyl]pyrazin-2-amine]
Second: Cc1nc2c(F)cccc2n1-c1cncc(Nc2ccc(C(F)(F)F)cc2)n1 [compound 339, 6-(4-fluoro-2-methyl-1H-benzimidazol-1-yl)-N-[4-(trifluoromethyl)phenyl]pyrazin-2-amine]
The EC50 of the first is lower: 1 to 10 nM for the first, 10 to 100 nM for the second.

First: OCc1nc2ccc(F)cn2c1-c1cncc(Nc2ccc(C(F)(F)F)cc2)n1 [compound 328, [6-fluoro-3-(6-{[4-(trifluoromethyl)phenyl]amino}pyrazin-2-yl)imidazo[1,2-a]pyridin-2-yl]methanol]
Second: Cc1cc(-c2cncc(Nc3ccc(C(F)(F)F)cc3)n2)ccn1 [compound 353, 6-(2-methylpyridin-4-yl)-N-[4-(trifluoromethyl)phenyl]pyrazin-2-amine]
The EC50 of the first is lower: 1 to 10 nM for the first, 100 to 3000 nM for the second.

First: CCn1nc(C(F)(F)F)c(-c2cncc(Nc3ccc(OC(F)F)cc3)n2)c1C [compound 330, N-[4-(difluoromethoxy)phenyl]-6-[1-ethyl-5-methyl-3-(trifluoromethyl)-1H-pyrazol-4-yl]pyrazin-2-amine]
Second: CCc1nn(C)c(CC)c1-c1cncc(Nc2ccc(OC(F)F)cc2)n1 [compound 333, 6-(3,5-diethyl-1-methyl-1H-pyrazol-4-yl)-N-[4-(difluoromethoxy)phenyl]pyrazin-2-amine]
The EC50 of the first is higher: 10 to 100 nM for the first, 1 to 10 nM for the second.

`Cc1nc2ccc(C(F)(F)F)cc2n1-c1cncc(Nc2ccc(C(F)(F)F)cc2)n1` [compound 340, 6-[2-methyl-6-(trifluoromethyl)-1H-benzimidazol-1-yl]-N-[4-(trifluoromethyl)phenyl]pyrazin-2-amine] and `Cc1nc2cc(OC(F)(F)F)ccc2n1-c1cncc(Nc2ccc(C(F)(F)F)cc2)n1` [compound 356, 6-[2-methyl-5-(trifluoromethoxy)-1H-benzimidazol-1-yl]-N-[4-(trifluoromethyl)phenyl]pyrazin-2-amine] fall in the same range of EC50: 100 to 3000 nM for the first, 100 to 3000 nM for the second.

Compared with `Cc1nc(C)n(-c2cncc(Nc3ccc(C(F)(F)F)cc3)n2)c1C` [compound 342, N-[4-(trifluoromethyl)phenyl]-6-(2,4,5-trimethyl-1H-imidazol-1-yl)pyrazin-2-amine], `Cc1nc2cc(Cl)ccc2n1-c1cc(C#N)cc(Nc2ccc(C(F)(F)F)cc2)n1` [compound 344, 2-(5-chloro-2-methyl-1H-benzimidazol-1-yl)-6-{[4-(trifluoromethyl)phenyl]amino}pyridine-4-carbonitrile] is higher in EC50: 10 to 100 nM for the first, 100 to 3000 nM for the second. The first is the more potent here.

First: Cc1nc2ccc(Cl)cc2n1-c1cc(C#N)cc(Nc2ccc(C(F)(F)F)cc2)n1 [compound 345, 2-(6-chloro-2-methyl-1H-benzimidazol-1-yl)-6-{[4-(trifluoromethyl)phenyl]amino}pyridine-4-carbonitrile]
Second: FC(F)(F)c1ccc(Nc2cncc(-c3ccnc(-c4ccnc(Cl)c4)c3)n2)cc1 [compound 354, 6-(2′-chloro-2,4′-bipyridin-4-yl)-N-[4-(trifluoromethyl)phenyl]pyrazin-2-amine]
The EC50 of the first is lower: 10 to 100 nM for the first, 100 to 3000 nM for the second.
